Source: US12325744B2, “Methods for reducing post-operative cognitive dysfunction (POCD)” (The Kennedy Trust for Rheumatology Research, priority 2010, dated 2025)
“Also recorded” adds a separate entry of the source.

How the values were obtained:
IL-6 = assay: Plasma IL-6 by ELISA after LPS injection; type: in vivo, mice; settings: LPS 1 mg/kg i.p., IL-1Ra 100 mg/kg s.c. immediately before LPS
Experimental: Treatment. LPS derived from Escherichia Coli endotoxin ([…], InvivoGen, USA, 1 mg/kg) was dissolved in normal saline and injected intraperitoneally. IL-1Ra (Amgen, Anakinra 100 mg/kg, Nederlands) was given subcutaneously immediately before LPS administration. Dose response curve from LPS or IL-1Ra was obtained from our pilot studies to provoke or to suppress moderate degree of microglia activation respectively. Control animals were injected with equivalent volumes (0.1 ml) of saline. Mice from each treatment group were randomly assigned for assessment of either cytokine response or cognitive behavior, in order to obviate possible confounding effects of behavioral testing on inflammatory markers.
Plasma cytokine measurement. Blood was sampled transcardially after thoracotomy under terminal anesthesia 30 minutes, 2, 6, 12 hours and 1, 3, 7 days after experiments in the different cohorts and centrifuged at 3,600 rpm for 7 minutes at 4° C. Blood samples taken from animals without any interventions severed as controls. Plasma samples were stored at −20° C. for further analysis. Plasma cytokine and HMGB-1 were measured using commercially available ELISA kits from Biosource, CA and Shino-test Corporation, Japan, respectively. The sensitivities of the assays were <3 pg/ml for TNFα, <7 pg/ml for IL-1β, <3 pg/ml for IL-6 and 1 ng/ml for HMGB-1.

IL-1β = assay: Plasma (systemic) IL-1β by ELISA after tibial surgery; type: in vivo; settings: wild type mice, minocycline 40 mg/kg i.p., enrofloxacin 10 mg/kg or IL-1Ra 100 mg/kg given prior to surgery, vs surgery alone
From the text: Mice were subjected to an open tibial fracture of the left hind paw with intramedullary fixation in aseptic conditions under general anaesthesia with isoflurane and analgesia with buprenorphineas previously described^18. Other groups of animals were not subjected to any intervention (naïve), or received anesthetic/analgesia alone, or underwent surgery with concurrent administration of minocycline, enrofloxacin, or IL-1 receptor antagonist (IL-1Ra). (For further details please refer to supplemental methods).
IL-6, TNF-α and IL-1β were measured by ELISA^19 (Biosource, CA; Bender Medsystem, CA, respectively). Hippocampal IL-1β was measured by ELISA (Bender Medsystem, CA), as previously described^20. To confirm reliability of dilution linearity and spike recovery cytokine measurement were also performed in mice in which inflammation was induced with i.p. LPS (0111:B4, Invivogen, CA). (For further details please refer to supplemental methods).
Mice were randomly assigned to the following groups: surgery under general anesthesia (S), surgery under general anesthesia plus minocycline (M), surgery under general anesthesia plus enrofloxacin (E), surgery under general anesthesia plus interleukin-1 receptor antagonist (IL-1Ra) (I), surgery in IL1R^−/− mice under general anesthesia (K), general anesthesia without surgery (A), and no intervention (naïve wild-type, or naïve IL1R^−/−). Under aseptic conditions, groups of mice were subjected to an open tibial fracture of the left hind paw with an intramedullary fixation as previously described^2. Briefly, isoflurane (Abbot Laboratories Ltd., Queensborough, Kent, UK) 2.1% in air (1.5 MAC)^3 and buprenorphine (Reckitt Benckiser Healthcare Ltd, Hull, UK) 0.1 mg/kg subcutaneously (sc), were given to provide both surgical anesthesia and extended post-operative analgesia for the surgical intervention and post-surgical recovery. After shaving the overlying skin and disinfecting with chlorhexidine gluconate 0.5% and isopropyl alcohol 70% (PDI, Orangeburg, NY, USA) a fracture of the tibial shaft was created under direct vision. […]

**Q.** “IL-1Ra: IL-1 receptor antagonist (Amgen, Anakinra)” was tested. Which “Plasma IL-6 at 6 hours after LPS with IL-1Ra” value (IL-6; 6 hours) did it give?
**A.** 91.02 ± 15.17 pg/mL

**Q.** And the “Plasma IL-6 at 24 hours after LPS with IL-1Ra” value (IL-6; 24 hours)?
**A.** 14.05 ± 2.34 pg/mL

**Q.** What about the “Plasma IL-1β after surgery, effect of treatment” value (IL-1β) of the same substance?
**A.** did not increase circulating IL-1β; also recorded: Surgery did not induce a significant increase of IL-1β at 24 h
